Experimental data published in patent US7435850B2, “Naphthalene compounds” (Les Laboratoires Servier, priority 2006, dated 2008).

Key:
[1] = target: MT1 receptor (Homo sapiens, UniProt P48039); assay: Melatonin MT1 receptor binding study
Experimental: (§1) The MT1 or MT2 receptor binding experiments are carried out using 2-[^125 I]-iodomelatonin as reference radioligand. The radioactivity retained is determined using a liquid scintillation counter.
(§2) Competitive binding experiments are then carried out in triplicate using the various test compounds. A range of different concentrations is tested for each compound. The results enable the binding affinities of the compounds tested (Ki) to be determined.

[2] = target: T1, MT2 receptor (Homo sapiens, UniProt P49286); assay: Melatonin MT2 receptor binding study
T1 sequence (P49286 1-362): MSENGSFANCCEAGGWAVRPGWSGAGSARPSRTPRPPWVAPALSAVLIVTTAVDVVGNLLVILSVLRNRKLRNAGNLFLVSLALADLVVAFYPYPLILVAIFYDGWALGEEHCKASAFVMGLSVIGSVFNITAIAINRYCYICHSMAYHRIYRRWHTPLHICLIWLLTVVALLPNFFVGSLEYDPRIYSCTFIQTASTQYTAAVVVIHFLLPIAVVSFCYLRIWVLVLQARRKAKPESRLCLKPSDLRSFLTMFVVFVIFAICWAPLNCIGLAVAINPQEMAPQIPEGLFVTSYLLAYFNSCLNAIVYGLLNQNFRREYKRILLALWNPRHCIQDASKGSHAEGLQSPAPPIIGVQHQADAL
Experimental: as §1, §2

Sequence of MT1 receptor (P48039 whole entry): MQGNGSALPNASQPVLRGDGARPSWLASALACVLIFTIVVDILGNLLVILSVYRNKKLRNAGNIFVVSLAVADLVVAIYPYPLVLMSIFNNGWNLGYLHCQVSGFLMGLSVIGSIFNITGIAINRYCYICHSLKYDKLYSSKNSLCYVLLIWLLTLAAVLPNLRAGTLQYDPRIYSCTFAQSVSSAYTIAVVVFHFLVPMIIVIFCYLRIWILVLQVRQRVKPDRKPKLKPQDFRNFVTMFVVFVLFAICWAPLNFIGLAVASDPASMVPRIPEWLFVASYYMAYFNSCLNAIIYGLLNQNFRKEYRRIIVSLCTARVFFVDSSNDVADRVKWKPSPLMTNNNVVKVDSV

Question: For `COc1ccc2cccc(C(CO)CNC(=O)CF)c2c1` (centres unmarked) [Example 1, 2-Fluoro-N-[3-hydroxy-2-(7-methoxy-1-naphthyl)propyl]acetamide], which Ki [1] is on record?
Answer: 4.7 nM

Question: What about the Ki [2] of the same molecule?
Answer: 0.5 nM
